Counter-ions that a name gives are not always drawn.
system: not listed separately; assay: in vitro; conditions: rat, gh3-tre-luc cells, AC50 (uM) modified / 1000

Row | SMILES | CC50 at 24 h [µM]
1 | COc1ccc(-c2cc(=S)ss2)cc1 [Anethole trithione] | > 50
2 | F/C(COc1ccc2c(c1)[nH]c1ccccc12)=C1/CN2CCC1CC2 [2-{[(2E)-2-(1-Azabicyclo[2.2.2]oct-3-ylidene)-2-fluoroethyl]oxy}-9H-carbazole] | 7.59
3 | N#Cc1ccccn1 [2-Pyridinecarbonitrile] | > 100
4 | COc1ccccc1OC(=O)Oc1ccccc1OC [Guaiacol carbonate] | > 50
5 | Nc1ccc(C(=O)O)cc1 [4-Aminobenzoic acid] | > 90
6 | C/C(=C(\CCO)SS/C(CCO)=C(/C)N(C=O)Cc1cnc(C)nc1N)N(C=O)Cc1cnc(C)nc1N [Thiamine disulfide] | > 50
7 | C[C@@H]1CC(=O)NN=C1c1ccc(NN=C(C#N)C#N)cc1 [Levosimendan] | 14.8
8 | CCN(CC)CCNC(C(=O)OCCC(C)C)c1ccccc1 (stereo not drawn) [Camylofin] | > 50
9 | CN[C@@H]1[C@@H](O[C@H]2O[C@H](CO)[C@@H](N)[C@H](O)[C@H]2O)O[C@H]2C[C@@H](N)[C@@H](O[C@H]3[C@H](O)[C@@H](O)[C@H](N)C[C@@H]3N)O[C@@H]2[C@@H]1O [Apramycin] | > 20
10 | C[C@@H](N)C(=O)c1ccccc1 [(R)-(+)-Cathinone hydrochloride] | > 100
11 | CCCCCCCCCCCCCCCCCC(=O)OCC(CC)CCCC (stereo not drawn) [2-Ethylhexyl octadecanoate] | > 90
12 | O=S(=O)(c1ccc(Cl)cc1)c1cc(Cl)c(Cl)cc1Cl [Tetradifon] | 60.5
13 | O=C(Nc1ccc(C(=O)O)c(O)c1)c1ccccc1 [Benzoylpas] | > 50
14 | O=c1[nH]c(=O)n([C@H]2C[C@H](O)[C@@H](CO)O2)cc1C(F)(F)F [Trifluridine] | > 50
15 | C1CCN2C[C@@H]3C[C@@H](CN4CCCC[C@@H]34)[C@H]2C1 [Sparteine] | > 20
16 | CC1(C)S[C@@H]2[C@H](N=CN3CCCCCC3)C(=O)N2[C@H]1C(=O)O [Amdinocillin] | > 50
17 | C[C@@H](c1ncncc1F)[C@](O)(Cn1cncn1)c1ccc(F)cc1F [Voriconazole] | > 50
18 | CC1(C)S[C@@H]2[C@H](NC(=O)[C@H](N)c3ccc(O)cc3)C(=O)N2[C@H]1C(=O)O [Amoxicillin] | > 50
19 | C#CCN(C)CCCOc1ccc(Cl)cc1Cl [Clorgyline hydrochloride] | 28.1
20 | C=Cc1ccccn1 [2-Vinylpyridine] | > 90
21 | COc1cc(NCc2ccc3nc(N)nc(N)c3c2C)cc(OC)c1OC [Trimetrexate trihydrochloride] | 8.81
22 | CC(C)NCC(O)COc1ccc(COCCOC(C)C)cc1 (stereo not drawn) [Bisoprolol fumarate] | > 50
23 | Cc1ccc(C(=O)Nc2ccc(S(=O)(=O)O)c3cc(S(=O)(=O)O)cc(S(=O)(=O)O)c23)cc1NC(=O)c1cccc(NC(=O)Nc2cccc(C(=O)Nc3cc(C(=O)Nc4ccc(S(=O)(=O)O)c5cc(S(=O)(=O)O)cc(S(=O)(=O)O)c45)ccc3C)c2)c1 [Suramin] | > 50
24 | O=c1ccc2ccccc2o1 [Coumarin] | > 90

Row | SMILES | CC50 at 24 h [µM]
25 | COc1ccccc1N1CCN(CC(O)COc2cccc3ccccc23)CC1 (stereo not drawn) [Naftopidil] | 23.4
26 | O=C(O)c1ccccc1-c1ccc(C(F)(F)F)cc1 [Xenalipin] | > 50
27 | CCCCCCCCCC[N+](C)(CCCCCCCCCC)CCC[Si](OC)(OC)OC [Disiquonium chloride] | 25.6
28 | C[C@@H]1C[C@H]2[C@@H]3CCC4=CC(=O)C=C[C@]4(C)[C@@]3(F)[C@@H](O)C[C@]2(C)[C@H]1C(=O)CO [Desoximetasone] | > 50
29 | O=C(NO)c1ccccc1 [N-Hydroxybenzamide] | > 90
30 | COC(=O)C1=C(C#N)NC(C)=C(C(=O)OC(C)C)C1c1cccc([N+](=O)[O-])c1 (stereo not drawn) [Nilvadipine] | 27.9
31 | CCOc1ccc(N=Nc2ccc(/C=C/c3ccc(N=Nc4ccc(OCC)cc4)cc3S(=O)(=O)O)c(S(=O)(=O)O)c2)cc1 [C.I. Direct Yellow 12] | 42.7
32 | C=CCC1=C(C)C(OC(=O)[C@@H]2[C@@H](C=C(C)C)C2(C)C)CC1=O (stereo partly drawn) [Allethrin] | 53.2
33 | Nc1ccc(NCCO)c([N+](=O)[O-])c1 [HC Red 3] | 52.7
34 | C1=CCC2CC=CC2C1 (stereo not drawn) [3a,4,7,7a-Tetrahydroindene] | > 90
35 | Nc1ccc2c3c(cccc13)-c1ccccc1-2 [3-Aminofluoranthene] | > 90
36 | COC(OC)C(C)c1ccccc1 (stereo not drawn) [2-Phenylpropionaldehyde dimethyl acetal] | > 90
37 | ON=CC=NO [Glyoxime] | > 90
38 | CSCc1cnccn1 [(Methylthio)methylpyrazine] | > 200
39 | OC[C@H]1O[C@@](CO)(O[C@H]2O[C@H](CO)[C@@H](O)[C@H](O)[C@H]2O)[C@@H](O)[C@@H]1O [Sucrose] | > 90
40 | OCCO [Ethylene glycol] | > 100
41 | COC(=O)C1=C(C)NC(C)=C(C(=O)O[C@@H]2CCCN(Cc3ccccc3)C2)[C@@H]1c1cccc([N+](=O)[O-])c1 (racemic) [rac Benidipine hydrochloride] | 25.5
42 | COc1ccc(C(=O)/C(Br)=C\C(=O)O)cc1 [Cytembena] | 44
43 | O=Cc1ccc(Cl)c(Cl)c1 [3,4-Dichlorobenzaldehyde] | > 90
44 | CC(C)(C)NC[C@H](O)COc1ccccc1C1CCCC1 [Penbutolol sulfate] | 11.1
45 | CC(C)(C)NC(N)=O [(1,1-Dimethylethyl)urea] | > 90
46 | C=C1CC[C@H]2C[C@@H]1C2(C)C [beta-Pinene] | > 90
47 | COc1cccc(OC)c1 [1,3-Dimethoxybenzene] | > 90

same assay, conditions: rat, gh3-tre-luc cells, AC50 (uM) modified / 1000, Tox21_110001=Tox21_111044; viability, 1 nM T3 present, 24 h

Row | SMILES | CC50 at 24 h [µM]
48 | C1CCC(NC2CCCCC2)CC1 [Dicyclohexylamine] | > 50

same assay, conditions: rat, gh3-tre-luc cells, AC50 (uM) modified / 1000, Tox21_110001=Tox21_111794; viability, 1 nM T3 present, 24 h

Row | SMILES | CC50 at 24 h [µM]
49 | CC(Cc1ccccc1)NC=O (stereo not drawn) [Formetorex] | > 50

same assay, conditions: rat, gh3-tre-luc cells, AC50 (uM) modified / 1000, Tox21_110001=Tox21_200003; viability, 1 nM T3 present, 24 h

Row | SMILES | CC50 at 24 h [µM]
50 | Cl/C=C\Cl [(Z)-1,2-Dichloroethylene] | > 90

same assay, conditions: rat, gh3-tre-luc cells, AC50 (uM) modified / 1000, Tox21_110001=Tox21_200015; viability, 1 nM T3 present, 24 h

Row | SMILES | CC50 at 24 h [µM]
51 | N#CSCc1ccccc1 [Benzyl thiocyanate] | > 90

same assay, conditions: rat, gh3-tre-luc cells, AC50 (uM) modified / 1000, Tox21_110001=Tox21_200666; viability, 1 nM T3 present, 24 h

Row | SMILES | CC50 at 24 h [µM]
52 | NNC(=O)c1cccnc1 [Nicotinic acid hydrazide] | > 90

same assay, conditions: rat, gh3-tre-luc cells, AC50 (uM) modified / 1000, Tox21_110001=Tox21_201361; viability, 1 nM T3 present, 24 h

Row | SMILES | CC50 at 24 h [µM]
53 | C=CC(Cl)CCl (stereo not drawn) [3,4-Dichloro-1-butene] | > 90

same assay, conditions: rat, gh3-tre-luc cells, AC50 (uM) modified / 1000, Tox21_110001=Tox21_201493; viability, 1 nM T3 present, 24 h

Row | SMILES | CC50 at 24 h [µM]
54 | O=NN(O)c1ccccc1 [Cupferron] | > 90

same assay, conditions: rat, gh3-tre-luc cells, AC50 (uM) modified / 1000, Tox21_110001=Tox21_201771; viability, 1 nM T3 present, 24 h

Row | SMILES | CC50 at 24 h [µM]
55 | C1CCC(NC2CCCCC2)CC1 [Dicyclohexylamine] | > 90

same assay, conditions: rat, gh3-tre-luc cells, AC50 (uM) modified / 1000, Tox21_110001=Tox21_202220; viability, 1 nM T3 present, 24 h

Row | SMILES | CC50 at 24 h [µM]
56 | Oc1ccc(-c2ccccc2)cc1 [4-Phenylphenol] | 62.2

same assay, conditions: rat, gh3-tre-luc cells, AC50 (uM) modified / 1000, Tox21_110001=Tox21_202297; viability, 1 nM T3 present, 24 h

Row | SMILES | CC50 at 24 h [µM]
57 | O=C(O)C(Br)Br [Dibromoacetic acid] | > 90

same assay, conditions: rat, gh3-tre-luc cells, AC50 (uM) modified / 1000, Tox21_110001=Tox21_302210; viability, 1 nM T3 present, 24 h

Row | SMILES | CC50 at 24 h [µM]
58 | CNC(=O)Oc1c(C(C)(C)C)cc(C)cc1C(C)(C)C [Terbucarb] | > 90

same assay, conditions: rat, gh3-tre-luc cells, AC50 (uM) modified / 1000, Tox21_110001=Tox21_302734; viability, 1 nM T3 present, 24 h

Row | SMILES | CC50 at 24 h [µM]
59 | Oc1ccc(-c2ccccc2)cc1 [4-Phenylphenol] | > 90

system: GH3-TRE-Luc cell line; assay: not given; conditions: read-out: AC50 (uM) modified / 1000; Tox21_110001=Tox21_110210; viability, 1 nM T3 present, 24 h

Row | SMILES | CC50 [µM]
60 | C[C@H](Cc1ccc(O)c(O)c1)[C@@H](C)Cc1ccc(O)c(O)c1 [Masoprocol] | 9.04

same assay, conditions: read-out: AC50 (uM) modified / 1000; Tox21_110001=Tox21_110862; viability, 1 nM T3 present, 24 h

Row | SMILES | CC50 [µM]
61 | CN(C)CCOc1ccccc1Cc1ccccc1 [Phenyltoloxamine citrate] | 9.16

same assay, conditions: read-out: AC50 (uM) modified / 1000; Tox21_110001=Tox21_113083; viability, 1 nM T3 present, 24 h

Row | SMILES | CC50 [µM]
62 | Oc1cccc2cccnc12 [8-Hydroxyquinoline] | 3

same assay, conditions: read-out: AC50 (uM) modified / 1000; Tox21_110001=Tox21_201834; viability, 1 nM T3 present, 24 h

Row | SMILES | CC50 [µM]
63 | CCc1nc(N)nc(N)c1-c1ccc(Cl)cc1 [Pyrimethamine] | > 90

same assay, conditions: read-out: AC50 (uM) modified / 1000; Tox21_110001=Tox21_202986; viability, 1 nM T3 present, 24 h

Row | SMILES | CC50 [µM]
64 | Oc1cccc2cccnc12 [8-Hydroxyquinoline] | 3.28

same assay, conditions: read-out: AC50 (uM) modified / 1000; Tox21_110001=Tox21_300129; viability, 1 nM T3 present, 24 h

Row | SMILES | CC50 [µM]
65 | CCc1nc(N)nc(N)c1-c1ccc(Cl)cc1 [Pyrimethamine] | 42.7

same assay, conditions: read-out: AC50 (uM) modified / 1000; Tox21_110001=Tox21_301835; viability, 1 nM T3 present, 24 h

Row | SMILES | CC50 [µM]
66 | CC[C@H]1OC(=O)[C@H](C)[C@@H](O[C@H]2C[C@@](C)(OC)[C@@H](O)[C@H](C)O2)[C@H](C)[C@@H](O[C@@H]2O[C@H](C)C[C@H](N(C)C)[C@H]2O)[C@](C)(O)C[C@@H](C)/C(=N\OCOCCOC)[C@H](C)[C@@H](O)[C@]1(C)O [Roxithromycin] | 31

same assay, conditions: read-out: AC50 (uM) modified / 1000; Tox21_110001=Tox21_302689; viability, 1 nM T3 present, 24 h

Row | SMILES | CC50 [µM]
67 | [H]/N=C(\N/C(=N/[H])NCCCCCCNC(=N)NC(=N)Nc1ccc(Cl)cc1)Nc1ccc(Cl)cc1 [Chlorhexidine dihydrochloride] | 5.24

same assay, conditions: read-out: AC50 (uM) modified / 1000; Tox21_110001=Tox21_303623; viability, 1 nM T3 present, 24 h

Row | SMILES | CC50 [µM]
68 | C#C[C@]1(O)CC[C@H]2[C@@H]3CCC4=CC(=O)CC[C@@H]4[C@H]3CC[C@@]21CC (racemic) [dl-Norgestrel] | 64.5

same assay, conditions: read-out: AC50 (uM) modified / 1000; Tox21_110001=Tox21_400006; viability, 1 nM T3 present, 24 h

Row | SMILES | CC50 [µM]
69 | Oc1cccc2cccnc12 [8-Hydroxyquinoline] | 3.8
